Assay results reported in patent publication US20250312258A1, “2,3-PYRROLIDINEDIONE CONJUGATES AND METHODS OF USING THEREOF” (North Carolina State University, priority 2022, published 2025).
In brackets after ≈: the same amount, converted by molar mass. Read-outs that look alike come from different tables or passages of the source.

Experiments:
S. aureus 25923 = experiment: Broth microdilution MIC, S. aureus 25923; assay type: cell-based, Staphylococcus aureus; conditions: Staphylococcus aureus, 25923; read-out: MIC (S. aureus 25923)
S. aureus 29213 = experiment: Broth microdilution MIC, S. aureus 29213; assay type: cell-based, Staphylococcus aureus; conditions: Staphylococcus aureus
MRSA 33591 = experiment: Broth microdilution MIC, MRSA 33591; assay type: cell-based; conditions: Staphylococcus aureus, read-out: MIC (MRSA 33591)
VRSA [1] = experiment: MIC against VRSA (Table 2); assay type: cell-based; conditions: Staphylococcus aureus, read-out: MIC (VRSA)
vanB VRE 51299 = experiment: MIC against vanB VRE 51299; assay type: cell-based, Enterococcus spp.; conditions: Enterococcus
VRSA [2] = experiment: MIC against VRSA strain panel (VRS/NRS strains); assay type: cell-based; conditions: Staphylococcus aureus, read-out: MIC
VRE = experiment: MIC / in vitro activity against VRE strain panel; assay type: cell-based, Enterococcus spp.; conditions: for MIC: Enterococcus, VRE, read-out: MIC
MRSA = experiment: MIC against MRSA strain panel; assay type: cell-based; conditions: Staphylococcus aureus, the 4th table, read-out: MIC
MSSA = experiment: MIC against MSSA strain panel; assay type: cell-based; conditions: Staphylococcus aureus, the 4th table, read-out: MIC

- MIC (S. aureus 25923): 0.5 µg/mL (≈ 1.31 µM)
- MIC (S. aureus 29213; 29213, read-out: MIC (S. aureus 29213)): 0.5 to 1 µg/mL (≈ 1.31 to 2.61 µM)
- MIC (S. aureus 29213; ATCC 29213 / MRSA, ATCC 29213 MRSA, the 4th table, read-out: MIC): 2 µg/mL (≈ 5.23 µM)
- MIC (S. aureus 29213; ATCC 29213 / MRSA, ATCC 29213 MRSA, the 5th table, read-out: MIC): 1 µg/mL (≈ 2.61 µM)
- MIC (MRSA 33591): 1 µg/mL (≈ 2.61 µM)
- MIC (VRSA [1]): 1 µg/mL (≈ 2.61 µM)
- MIC (vanB VRE 51299; VRE, the 2nd table, read-out: MIC (vanB VRE 51299)): 2 µg/mL (≈ 5.23 µM)
- MIC (vanB VRE 51299; vanB VRE 51299, the 3rd table, read-out: MIC): 2 µg/mL (≈ 5.23 µM)
- MIC (VRSA [2]; NRS 1 / VRSA, NRS-1 (VRSA), the 3rd table): 4 µg/mL (≈ 10.5 µM)
- MIC (VRSA [2]; NRS 1 / VRSA, NRS-1 VRSA, the 5th table): 4 µg/mL (≈ 10.5 µM)
- MIC (VRSA [2]; NRS 2 / VRSA, NRS-2 VRSA, the 5th table): 2 µg/mL (≈ 5.23 µM)
- MIC (VRSA [2]; VRSA, VRS-1 (VRSA), the 3rd table): 16 µg/mL (≈ 41.8 µM)
- MIC (VRSA [2]; VRSA, VRS-1 VRSA, the 5th table): 16 µg/mL (≈ 41.8 µM)
- MIC (VRSA [2]; VRSA, VRS-2 (VRSA), the 3rd table): 4 µg/mL (≈ 10.5 µM)
- MIC (VRSA [2]; VRSA, VRS-2 VRSA, the 5th table): 4 µg/mL (≈ 10.5 µM)
- MIC (VRSA [2]; VRSA, VRS-3a VRSA, the 5th table): 4 µg/mL (≈ 10.5 µM)
- MIC (VRSA [2]; VRSA, VRS-3b VRSA, the 5th table): > 64 µg/mL
- MIC (VRSA [2]; VRSA, VRS-4 (VRSA), the 3rd table): 4 µg/mL (≈ 10.5 µM)
- MIC (VRSA [2]; VRSA, VRS-4 VRSA, the 5th table): 8 µg/mL (≈ 20.9 µM)
- MIC (VRSA [2]; VRSA, VRS-5 VRSA, the 5th table): 8 µg/mL (≈ 20.9 µM)
- MIC (VRSA [2]; VRSA, VRS-6 VRSA, the 5th table): 16 µg/mL (≈ 41.8 µM)
- MIC (VRSA [2]; VRSA, VRS-7 VRSA, the 5th table): 8 µg/mL (≈ 20.9 µM)
- MIC (VRSA [2]; VRSA, VRS-8 VRSA, the 5th table): 16 µg/mL (≈ 41.8 µM)
- MIC (VRSA [2]; VRSA, VRS-9 VRSA, the 5th table): 16 µg/mL (≈ 41.8 µM)
- MIC (VRSA [2]; VRSA, VRS-10 VRSA, the 5th table): 16 µg/mL (≈ 41.8 µM)
- MIC (VRSA [2]; VRSA, VRS-11a VRSA, the 5th table): 16 µg/mL (≈ 41.8 µM)
- MIC (VRSA [2]; VRSA, VRS-11b VRSA, the 5th table): 16 µg/mL (≈ 41.8 µM)
- MIC (VRE; 1593 (VRE), the 3rd table): 8 µg/mL (≈ 20.9 µM)
- MIC (VRE; 1593 VRE, the 4th table): 8 µg/mL (≈ 20.9 µM)
- MIC (VRE; 1751 (VRE), the 3rd table): 4 µg/mL (≈ 10.5 µM)
- MIC (VRE; 1751 VRE, the 6th table): 4 µg/mL (≈ 10.5 µM)
- MIC (VRE; 1772 VRE, the 6th table): 8 µg/mL (≈ 20.9 µM)
- MIC (VRE; 1946 VRE, the 6th table): 8 µg/mL (≈ 20.9 µM)
- MIC (VRE; 2059 VRE, the 6th table): 8 µg/mL (≈ 20.9 µM)
- MIC (VRE; 2431 (VRE), the 3rd table): 8 µg/mL (≈ 20.9 µM)
- MIC (VRE; 2431 VRE, the 6th table): 8 µg/mL (≈ 20.9 µM)
- MIC (VRE; 2574 VRE, the 6th table): 8 µg/mL (≈ 20.9 µM)
- MIC (VRE; 3053 VRE, the 6th table): 16 µg/mL (≈ 41.8 µM)
- MIC (VRE; 3183 (VRE), the 3rd table): 4 µg/mL (≈ 10.5 µM)
- MIC (VRE; 3183 VRE, the 6th table): 4 µg/mL (≈ 10.5 µM)
- MIC (VRE; 3190 VRE, the 6th table): 8 µg/mL (≈ 20.9 µM)
- MIC (VRE; 3191 VRE, the 6th table): 8 µg/mL (≈ 20.9 µM)
- MIC (VRE; 3222 (VRE, the 3rd table)): 8 µg/mL (≈ 20.9 µM)
- MIC (VRE; 3222 VRE, the 6th table): 8 µg/mL (≈ 20.9 µM)
- MIC (VRE; 3235 VRE, the 6th table): 8 µg/mL (≈ 20.9 µM)
- MIC (VRE; 3239 VRE, the 6th table): 8 µg/mL (≈ 20.9 µM)
- MIC (VRE; 3241 VRE, the 6th table): 8 µg/mL (≈ 20.9 µM)
- MIC (VRE; 3623 VRE, the 6th table): 8 µg/mL (≈ 20.9 µM)
- MIC (MRSA; 6215 MRSA): 1 µg/mL (≈ 2.61 µM)
- MIC (MRSA; 6217 MRSA): 1 µg/mL (≈ 2.61 µM)
- MIC (MRSA; 6218 MRSA): 1 µg/mL (≈ 2.61 µM)
- MIC (MRSA; 6220 MRSA): 1 µg/mL (≈ 2.61 µM)
- MIC (MRSA; 6231 MRSA): 1 µg/mL (≈ 2.61 µM)
- MIC (MRSA; AR-978 MRSA): 1 µg/mL (≈ 2.61 µM)
- MIC (MRSA; AR-979 MRSA): 1 µg/mL (≈ 2.61 µM)
- MIC (MRSA; AR-993 MRSA): 1 µg/mL (≈ 2.61 µM)
- MIC (MRSA; AR-997 MRSA): 1 µg/mL (≈ 2.61 µM)
- MIC (MSSA; VGP16-94 MSSA): 1 µg/mL (≈ 2.61 µM)
- MIC (MSSA; VGP16-95 MSSA): 2 µg/mL (≈ 5.23 µM)
- MIC (MSSA; VGP16-96 MSSA): 1 µg/mL (≈ 2.61 µM)
- MIC (MSSA; VGP16-97 MSSA): 1 µg/mL (≈ 2.61 µM)
- MIC (MSSA; VGP16-98 MSSA): 1 µg/mL (≈ 2.61 µM)
Structure (SMILES): CCC1C(c2ccc(C(F)(F)F)cc2)=C(O)C(=O)N1C1CCC(NC)CC1 (stereo not drawn) [Compound 4]
- in vitro activity against vancomycin-resistant Enterococcus spp. (VRE) compared with vancomycin (VRE; FIGS. 4A-4D): superior in vitro activity
